Assay type in all cases: cell-based
What all share (details): 3H-taurocholic acid transport

Assay [1] deals with T1, Human NTCP (Homo sapiens, UniProt Q14973).
T1 construct: expressed in transfected cells; peptide purchased from Pharmaron
T1 sequence (Q14973 1-349): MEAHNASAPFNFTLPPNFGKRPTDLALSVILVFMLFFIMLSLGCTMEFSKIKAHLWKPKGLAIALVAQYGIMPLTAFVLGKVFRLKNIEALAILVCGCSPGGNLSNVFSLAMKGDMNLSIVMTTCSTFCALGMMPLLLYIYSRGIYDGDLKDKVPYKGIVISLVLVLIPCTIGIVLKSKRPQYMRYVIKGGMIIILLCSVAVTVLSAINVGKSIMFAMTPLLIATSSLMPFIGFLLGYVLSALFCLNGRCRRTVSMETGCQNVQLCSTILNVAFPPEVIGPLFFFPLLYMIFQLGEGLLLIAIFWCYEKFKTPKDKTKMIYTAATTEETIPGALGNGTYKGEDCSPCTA
In words: 3H-taurocholic acid uptake in human NTCP-overexpressing cells. As for the experimental part: (§1) 20,000 cells (Human & Mouse NTCP-overexpressing cells) were seeded in 96-well plate in 100 μL MEM-alpha medium supplemented with 10% FBS containing geneticin (1 mg/mL) and incubated at 37° C. in 5% CO2 for 24 hrs. After incubation, media was decanted from the wells and cells were washed two times with 250 μL of basal MEM-alpha medium (FBS-free). After each wash, plates were tapped against a paper towel to ensure maximum removal of residual media. For Human NTCP (hNTCP), incubation mix was prepared by adding test inhibitor dilutions (3-fold serial dilution in DMSO, 10 concentrations) in MEM-alpha (without FBS) containing 0.3 μM ^3H-taurocholic acid and 7.5 μM cold taurocholic acid (maintaining 0.2% final DMSO concentration). […]
(§2) The plates were tapped against a paper towel after every wash to ensure maximum removal of blocking buffer. 100 μL of MicroScint-20 was added to the wells and kept overnight at room temperature before reading the plates in MicroBeta2 liquid Scintillation Counter from PerkinElmer under 3H Test for I/L-BAT protocol (set at 120 seconds reading time per well, with normal plate orientation).
(§3) Percentage inhibitions were calculated with respect to the assay controls. […]

Assay [2] concerns the target T2, Human IBAT (Homo sapiens, UniProt Q12908).
T2 construct: expressed in transfected cells; kept under puromycin selection
T2 sequence (Q12908 1-348): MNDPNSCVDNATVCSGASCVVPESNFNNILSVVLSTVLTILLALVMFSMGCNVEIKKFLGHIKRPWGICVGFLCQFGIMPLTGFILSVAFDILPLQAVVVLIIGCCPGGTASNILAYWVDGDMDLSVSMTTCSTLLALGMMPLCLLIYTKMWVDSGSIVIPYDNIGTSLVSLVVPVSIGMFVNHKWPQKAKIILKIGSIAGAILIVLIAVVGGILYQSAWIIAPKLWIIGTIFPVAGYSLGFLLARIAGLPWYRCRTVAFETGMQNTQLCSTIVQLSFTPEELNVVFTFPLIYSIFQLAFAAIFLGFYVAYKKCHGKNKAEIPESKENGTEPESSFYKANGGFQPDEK
In words: 3H-taurocholic acid uptake in human IBAT-overexpressing cells. The protocol: 10,000 cells (Human & Mouse IBAT-overexpressing cells) were seeded in 96-wells plate in 100 μL MEM-alpha medium supplemented with 10% FBS containing puromycin (10 μg/mL) and incubated at 37° C. in 5% CO2 for 48 hrs. After incubation media was decanted from the wells, cells were washed two times with 250 μL of basal MEM-alpha medium (FBS-free). After each wash, plates were tapped against paper towel to ensure maximum removal of residual media. Test inhibitor dilutions (highest test concentration being 10 μM, 3-fold serial dilution, 10 concentrations) prepared in DMSO were added to the incubation mix (maintaining 0.2% final DMSO concentration) containing 0.25 μM ^3H-taurocholic acid and 5 μM of cold taurocholic acid. […]
After incubation, the reaction was stopped by keeping the plates on ice water mix for 2-3 minutes and then the incubation mix was aspirated completely from the wells. […] 100 μL of MicroScint-20 was added to the wells and kept overnight at room temperature before reading the plates in MicroBeta2 liquid Scintillation Counter from PerkinElmer under ^3H Test for I/L-BAT protocol (set at 120 seconds reading time per well, with normal plate orientation).
as §3

The target of assay [3] is T3, Mouse NTCP (Mus musculus, UniProt O08705).
T3 construct: expressed in transfected cells; kept under geneticin selection
T3 sequence (O08705 1-362): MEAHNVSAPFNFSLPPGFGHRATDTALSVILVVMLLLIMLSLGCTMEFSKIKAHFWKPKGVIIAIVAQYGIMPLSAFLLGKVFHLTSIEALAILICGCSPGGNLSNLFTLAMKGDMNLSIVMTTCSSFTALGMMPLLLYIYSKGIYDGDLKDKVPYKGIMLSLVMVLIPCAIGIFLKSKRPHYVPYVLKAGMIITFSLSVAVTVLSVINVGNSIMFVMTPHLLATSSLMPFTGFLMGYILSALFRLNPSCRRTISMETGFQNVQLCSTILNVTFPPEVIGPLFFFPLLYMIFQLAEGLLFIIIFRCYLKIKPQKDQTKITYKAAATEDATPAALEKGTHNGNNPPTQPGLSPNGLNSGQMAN
The assay can be described thus: 3H-taurocholic acid uptake in mouse NTCP-overexpressing cells. As for the experimental part: as §1, §2, §3

Drawing on US20230398125A1, “TREATING HEPATITIS” (Albireo AB, priority 2022, published 2023), this text covers IC50 for one molecule.

Turning to `CCCCC1CN(c2ccccc2)c2cc(SC)c(O/C=C(\F)C(=O)O)cc2S(=O)(=O)N1C` (stereo not drawn) [Compound 1, (Z)-3-((3-butyl-2-methyl-7-(methylthio)-1,1-dioxido-5-phenyl-2,3,4,5-tetrahydro-1,2,5-benzothiadiazepin-8-yl)oxy)-2-fluoroacrylic acid], the results for the IC50 in assay [1], in assay [2] and in assay [3] were 0.53 ± 0.081 nM, 535 ± 83.3 nM and 1.82 ± 0.25 nM, respectively.
